Experimental data published in PubChem BioAssay (NCI).
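Cells were grown in 96-well plates and exposed to each compound for 48 hours at five concentrations; endpoints were interpolated linearly between bracketing concentrations, or set to the highest concentration if not reached. Here, GI50 denotes the concentration required for 50% inhibition of growth. TGI is the concentration that stops growth completely.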

Tests used:
Test in all cases: growth of human tumour cells (NCI), 48 h
HCT-15 colon = tested on: HCT-15 colon
EKVX NSCLC = tested on: EKVX NSCLC
SK-OV-3 ovarian = tested on: SK-OV-3 ovarian
BT-549 breast = tested on: BT-549 breast
SK-MEL-2 melanoma = tested on: SK-MEL-2 melanoma
OVCAR-4 ovarian = tested on: OVCAR-4 ovarian
MDA-MB-435 = tested on: MDA-MB-435
IGROV1 ovarian = tested on: IGROV1 ovarian
MCF7 breast = tested on: MCF7 breast
NCI-H226 lung = tested on: NCI-H226 lung

With CC(C)c1[nH]nc(C(N)=O)c1N=NN(C)C the TGI (HCT-15 colon) was > 100 µM, the TGI (EKVX NSCLC) was > 100 µM and the TGI (SK-OV-3 ovarian) was > 100 µM. The TGI (BT-549 breast) was > 100 µM, the TGI (SK-MEL-2 melanoma) was > 100 µM and the TGI (OVCAR-4 ovarian) was > 100 µM. The TGI (MDA-MB-435) was > 100 µM, the TGI (IGROV1 ovarian) was > 100 µM and the TGI (MCF7 breast) was > 100 µM. It also gave a TGI (NCI-H226 lung) of 71.6 µM.

In the case of CCOC(=O)c1cc(C(=O)c2cc(OC)c(OC)c(OC)c2)n2ncccc12, the GI50 (HCT-15 colon) is reported as 0.251 µM, the TGI (HCT-15 colon) is reported as > 100 µM and the GI50 (EKVX NSCLC) is reported as 0.65 µM. For the same molecule, the TGI (EKVX NSCLC) was > 100 µM, the GI50 (SK-OV-3 ovarian) was 0.472 µM and the TGI (SK-OV-3 ovarian) was > 95.1 µM. The GI50 (BT-549 breast) was 0.761 µM, the TGI (BT-549 breast) was > 100 µM and the GI50 (SK-MEL-2 melanoma) was 0.466 µM. For the same molecule, the TGI (SK-MEL-2 melanoma) was > 100 µM, the GI50 (OVCAR-4 ovarian) was 0.805 µM and the TGI (OVCAR-4 ovarian) was > 100 µM. It also gave a GI50 (MDA-MB-435) of 0.0314 µM, a TGI (MDA-MB-435) of 0.117 µM and a GI50 (IGROV1 ovarian) of 3.47 µM. For the same molecule, the TGI (IGROV1 ovarian) was > 100 µM, the GI50 (MCF7 breast) was 0.131 µM and the TGI (MCF7 breast) was > 100 µM. The GI50 (NCI-H226 lung) was 28.2 µM and the TGI (NCI-H226 lung) was > 100 µM.

In the case of COc1ccc(/C=C(/C#N)C(N)=O)c(OC)c1, the TGI (HCT-15 colon) is reported as > 100 µM, the TGI (EKVX NSCLC) is reported as > 100 µM and the TGI (SK-OV-3 ovarian) is reported as > 100 µM. The TGI (BT-549 breast) was > 100 µM, the TGI (SK-MEL-2 melanoma) was > 100 µM and the TGI (OVCAR-4 ovarian) was > 100 µM. For the same molecule, the TGI (MDA-MB-435) was 48.5 µM, the TGI (IGROV1 ovarian) was > 100 µM and the TGI (MCF7 breast) was > 100 µM. The TGI (NCI-H226 lung) was > 100 µM.

COc1ccc(C2CC(c3cccc(Nc4ccnc5cc(Cl)ccc45)c3)=NN2C=O)cc1 (stereo not given) was tested, and the GI50 (HCT-15 colon) was 0.541 µM, the TGI (HCT-15 colon) was > 100 µM and the GI50 (EKVX NSCLC) was 1.19 µM. The TGI (EKVX NSCLC) was > 100 µM, the GI50 (SK-OV-3 ovarian) was 0.795 µM and the TGI (SK-OV-3 ovarian) was > 35.6 µM. The GI50 (BT-549 breast) was 0.486 µM, the TGI (BT-549 breast) was 9.86 µM and the GI50 (SK-MEL-2 melanoma) was 0.457 µM. The TGI (SK-MEL-2 melanoma) was 6.41 µM, the GI50 (OVCAR-4 ovarian) was 0.94 µM and the TGI (OVCAR-4 ovarian) was > 100 µM. For the same molecule, the GI50 (MDA-MB-435) was 0.142 µM, the TGI (MDA-MB-435) was 0.809 µM and the GI50 (IGROV1 ovarian) was 1.9 µM. The TGI (IGROV1 ovarian) was > 100 µM, the GI50 (MCF7 breast) was 0.361 µM and the TGI (MCF7 breast) was > 100 µM. For the same molecule, the GI50 (NCI-H226 lung) was 39.3 µM and the TGI (NCI-H226 lung) was > 100 µM.

In the case of COc1cc(C2Cc3ncccc3-c3[nH]c(=O)c4cccnc4c32)cc(OC)c1OC (stereo not given), the GI50 (HCT-15 colon) is reported as 0.809 µM, the TGI (HCT-15 colon) is reported as > 100 µM and the GI50 (EKVX NSCLC) is reported as 3.21 µM. The TGI (EKVX NSCLC) was > 100 µM, the GI50 (SK-OV-3 ovarian) was 0.376 µM and the TGI (SK-OV-3 ovarian) was > 100 µM. It also gave a GI50 (BT-549 breast) of 0.633 µM, a TGI (BT-549 breast) of 66.6 µM and a GI50 (SK-MEL-2 melanoma) of 0.485 µM. The TGI (SK-MEL-2 melanoma) was > 100 µM, the GI50 (OVCAR-4 ovarian) was 1.12 µM and the TGI (OVCAR-4 ovarian) was > 100 µM. It also gave a GI50 (MDA-MB-435) of 0.0554 µM, a TGI (MDA-MB-435) of 0.428 µM and a GI50 (IGROV1 ovarian) of 0.46 µM. For the same molecule, the TGI (IGROV1 ovarian) was > 100 µM, the GI50 (MCF7 breast) was 0.277 µM and the TGI (MCF7 breast) was > 100 µM. For the same molecule, the GI50 (NCI-H226 lung) was > 74.7 µM and the TGI (NCI-H226 lung) was > 100 µM.

For CC1=CC(=O)C2=C(C)CCC3C(C)C(=O)OC3C12 (stereo not given), the TGI (HCT-15 colon) was > 100 µM, the TGI (EKVX NSCLC) was > 100 µM and the TGI (SK-OV-3 ovarian) was > 100 µM. For the same molecule, the TGI (BT-549 breast) was > 100 µM, the TGI (SK-MEL-2 melanoma) was > 100 µM and the TGI (OVCAR-4 ovarian) was > 100 µM. For the same molecule, the TGI (MDA-MB-435) was > 100 µM, the TGI (IGROV1 ovarian) was > 100 µM and the TGI (MCF7 breast) was > 100 µM. The TGI (NCI-H226 lung) was > 100 µM.

For COc1ccc2c(c1)/C(=C\c1c(-c3cc(OC)ccc3OC)nc3sc(C)cn13)C(=O)N2C, the GI50 (HCT-15 colon) was 33.9 µM, the TGI (HCT-15 colon) was > 100 µM and the GI50 (EKVX NSCLC) was 61.1 µM. For the same molecule, the TGI (EKVX NSCLC) was > 100 µM, the GI50 (SK-OV-3 ovarian) was 28 µM and the TGI (SK-OV-3 ovarian) was > 100 µM. For the same molecule, the GI50 (BT-549 breast) was 32.3 µM, the TGI (BT-549 breast) was > 100 µM and the GI50 (SK-MEL-2 melanoma) was 17.3 µM. For the same molecule, the TGI (SK-MEL-2 melanoma) was 38.5 µM, the GI50 (OVCAR-4 ovarian) was 20.9 µM and the TGI (OVCAR-4 ovarian) was > 100 µM. For the same molecule, the GI50 (MDA-MB-435) was 26.5 µM, the TGI (MDA-MB-435) was 79.9 µM and the GI50 (IGROV1 ovarian) was 19.4 µM. For the same molecule, the TGI (IGROV1 ovarian) was > 100 µM, the GI50 (MCF7 breast) was 28.3 µM and the TGI (MCF7 breast) was > 100 µM. For the same molecule, the GI50 (NCI-H226 lung) was 30.9 µM and the TGI (NCI-H226 lung) was > 100 µM.
